Data as given in US20200255492A1, “LEPTIN PEPTIDES AND THEIR USE FOR TREATING NEUROLOGICAL DISORDERS” (UNIVERSITY OF DUNDEE, priority 2017, published 2020).

Tests used:
[1] = system: GluA1 surface expression in cultured hippocampal neurons; assay: Surface labelling of AMPA receptor subunit GluA1 (immunocytochemistry); format: cell-based, Sprague Dawley rats; settings: for surface GluA1 expression: 50 nM, 15 min; for GluA1 staining in the presence of bpV: bpV plus leptin or leptin (116-130); for GluA1 surface expression in the presence of Aβ1-42: leptin peptide 10 nM plus Aβ1-42; for GluA1 surface expression, low concentration alone: 10 nM
Protocol: Hippocampal cultures were prepared from neonatal Sprague Dawley rats as before (O'Malley et al. 2007). Briefly, neonatal Sprague Dawley rats (1-3 days old) were killed by cervical dislocation in accordance with Schedule 1 of the United Kingdom Government Animals (Scientific Procedures) Act, 1986 and the hippocampi removed. After washing in HEPES buffered saline (HBS) comprising (mM): NaCl 135; KCl 5; CaCl2 1; MgCl2 1; HEPES 10; D-glucose 25 at pH 7.4; cells were treated with protease Type X and Type XIV (0.5 mg/ml; Sigma) for 25 min at room temperature. Dissociated cells were plated onto sterile dishes (Falcon 3001) treated with poly-1-lysine (20 μg/ml; 1-2 h) and maintained in MEM with serum replacement-2 (Sigma) in a humidified atmosphere of 5% CO2 and […] at 37° C. for up to 3 weeks.
To monitor GluA1 surface expression, immunocytochemistry was performed on hippocampal cultures (7-14 DIV) as before (Moult et al. 2010). Neurons were treated with agents for 20 min at room temperature (20-22° C.) before incubation with an antibody against an N-terminal region of GluA1 (sheep anti-GluR1; in house antibody against synthetic peptide (RTSDSRDHTRVDWKR) corresponding to 253-267 residues of GluR1; 1:100; Moult et al. 2010) at 4° C. Neurons were then fixed with 4% paraformaldehyde (5 min) before adding an appropriate fluorescently labelled secondary.
Trafficking of AMPA receptors to and away from synapses is crucial for various forms of activity-dependent synaptic plasticity (Collingridge et al. 2004). Our studies indicate that leptin regulates AMPA receptor trafficking as leptin promotes trafficking of GluA1 to hippocampal synapses (Moult et al. 2010). Moreover the ability of leptin to induce LTP in adult hippocampus requires the delivery of GluA1 to synapses by leptin (Moult et al. 2010). Thus, to assess if the leptin fragments also influence AMPA receptor trafficking processes, the surface expression of GluA1 was assayed in cultured hippocampal neurons (Moult et al. 2010). In agreement with previous studies, application of leptin (50 nM; 15 min) increased surface GluA1 expression to 184±7%; (n=36; P<0.001; FIG. 2C,D) compared with control hippocampal neurons. Similarly GluA1 surface expression was elevated (to 160±6% of control; n=36; P<0.001) after exposure to 50 nM leptin (116-130; FIG. 2C,D), whereas GluA1 surface expression (98±4% of control; n=36; P>0.05) was not altered after treatment with 50 nM leptin (22-56).

[2] = system: p-Tau in hippocampal neurons; assay: Immunocytochemistry of phosphorylated tau and p-tau/PSD-95 co-localization; format: cell-based, Sprague-Dawley rats; settings: for % co-localization of p-Tau and PSD-95 in Aβ1-42-treated neurons / p-Tau levels in Aβ1-42-treated neurons: Aβ1-42 1 μM plus leptin 10 nM or leptin(116-130)
Protocol: Hippocampal cultures were prepared as previously (Moult et al, 2010). Neonatal Sprague-Dawley rats (1-3 d old) were […] killed by cervical dislocation in accordance with the UK Animals (Scientific Procedures Act) 1986 legislation. Hippocampi were removed, and after washing in HEPES-buffered saline comprising (mM) 135 NaCl; 5 KCl; 1 CaCl2; 1 MgCl2; 10 HEPES; and 25 D-glucose at […], were treated with papain (1.5 mg ml21; Sigma-Aldrich) for 20 min at 37° C. Dissociated cells were plated onto sterile dishes (35 mm diameter; Greiner Bio-One, Kremsmun-ster, Austria) treated with poly-D-lysine (20 μg ml^−1; 1-2 h). Cultures were maintained in serum replacement medium (SR2; Sigma-Aldrich) in a humidified atmosphere of 5% CO2 and […] at 37° C. for up to 2 wk.
Phosphorylated tau was labelled with primary antibody rabbit anti-tau (Ab-396) polyclonal antibody (1:500, Gen Script) corresponding to phosphorylation site of serine 396 (Y-K-S^P-P-V). To visualise p-tau labelling, neurons were then incubated for 30 min with Alexa fluor555 donkey anti-rabbit IgG secondary antibody (1:250, Thermo Fisher Scientific). For synaptic localisation of p-tau, a secondary primary antibody was then added to compare p-tau localization relative to the synaptic marker, PSD95 (mouse anti-PSD-95, 1:500, Thermo Fisher Scientific) for 30 min. PSD-95 labelling was visualized by incubating with a goat anti-mouse Alexa Fluor […] antibody (1:500; Thermo Fisher Scientific) for 30 min.
A Zeiss LSM510 confocal microscope was used for image acquisition and analysis. Images were obtained using a 10-s scan speed in single tracking mode or multi-tracking mode for dual labelling experiments. The intensity of immunostaining was measured off-line using Lasersharp software (Zeiss Lasersharp), whereby analysis lines of 50 μm length were drawn along randomly selected dendritic regions. All data were obtained from at least three different cultures from different animals. Imaging conditions including illumination intensity and photomultiplier gains were kept constant between treatments for each experiment. In addition, data were normalised relative to the mean fluorescence intensity obtained from control neurons. For synaptic co-localisation experiments, tau and PSD-95 positive immunostaining were compared. The number of tau-positive sites that co-localized with PSD-95 positive sites were counted and expressed as a percentage of total positive sites (peaks of intensity).

[3] = system: adult hippocampal slices (12-24 weeks); assay: Excitatory synaptic transmission (fEPSP) in adult hippocampal slices; format: cell-based, Sprague Dawley rats; settings: 25 nM; 20 min; adult (12-24 weeks) slices
Protocol: Parasagittal hippocampal slices (300 μm) were prepared from either P13-21 or 12-24-week-old male Sprague Dawley rats as previously (Moult et al. 2010). Brains were rapidly removed and placed in ice-cold artificial CSF (aCSF; bubbled with 95% O2 and 5% CO2) containing the following (in mm): 124 NaCl, 3 KCl, 26 NaHCO3, 1.25 NaH2PO4, 2 CaCl2, 1 MgSO4, and 10 d-glucose. Once prepared, parasagittal slices were allowed to recover at room temperature in oxygenated aCSF for 1 h before use. Slices were transferred to a submerged chamber maintained at room temperature and perfused with artificial cerebrospinal fluid at 2 ml min^−1. Standard extracellular recordings were used to monitor evoked field excitatory postsynaptic potentials (fEPSP) from stratum radiatum. The Schaffer collateral-commissural pathway was stimulated (constant voltage; 0.1 ms) at 0.033 Hz, using a stimulus intensity that evoked a peak amplitude ˜50% of the maximum. Synaptic potentials were low pass filtered at 2 kHz and digitally sampled at 10 kHz. The fEPSP slope was measured and expressed relative to baseline. Synaptic records are the average of 4 consecutive responses and stimulus artefacts are blanked for clarity. Recordings were made using an Axopatch 200B amplifier and analyzed using LTP v2.4 software. In synaptic plasticity studies, the degree of potentiation was calculated 30-35 min after HFS and expressed as a percentage of baseline±standard error of mean (SEM).
We have shown that leptin regulation of excitatory synaptic transmission is age-dependent. Thus in contrast to its effects in juvenile tissue, leptin (25 nM) induces a novel form of LTP in adult hippocampus (Moult and Harvey 2011). In order to verify if the leptin fragments mirror leptin action in adult tissue, the effects of the leptin fragments were examined in hippocampal slices from adult (12-24 weeks) rats.

Row | Substance | GluA1 surface expression, Aβ1-42 alone ([1]; 500 nM, 20 min, control Aβ42-1-treated neurons) | p-Tau staining, Aβ1-42 alone ([2]; 1 μM) | synaptic levels of p-Tau (p-Tau/PSD-95), Aβ1-42 alone ([2]; 1 μM) | surface GluA1 expression [1] | GluA1 staining in the presence of bpV [1] | GluA1 surface expression in the presence of Aβ1-42 [1] | synaptic transmission [3] | % co-localization of p-Tau and PSD-95 in Aβ1-42-treated neurons [2] | p-Tau levels in Aβ1-42-treated neurons [2] | GluA1 surface expression, low concentration alone [1]
1 | Aβ1-42: amyloid beta 1-42, toxin used in the AD models [reference compound] | 70±2 % of control | increases phosphorylation of tau | synaptic levels of p-Tau are increased | – | – | – | – | – | – | –
2 | SCSLPQTSGLQKPES (listed as Mus musculus) [leptin (116-130)] | – | – | – | 160±6 % of control | 148±8.1 % of control | 97±4 % of control | 140±13 % of baseline | prevents Aβ1-42-dependent phosphorylation of tau and it trafficking to synapses | prevents Aβ1-42-dependent phosphorylation of tau | –
3 | leptin (22-56): leptin fragment amino acids 22-56 (Bachem), comparison fragment (VPIQKVQDDTKTLIKTIVTRINDISHTQSVSSKQK; UniProt P41159 22-56, looked up, fragment) [reference compound] | – | – | – | 98±4 % of control | – | 51±2 % of control | 99±2 % of baseline | – | – | no significant effect on GluA1 trafficking per se
4 | leptin: the metabolic hormone leptin, whole (full length) leptin molecule; human leptin from Sigma in SH-SY5Y work | – | – | – | 184±7 % of control | 131±6.6 % of control | 101±4 % of control | 188±13 % of baseline | prevents Aβ1-42-driven tau phosphorylation and its targeting to synapses | prevents Aβ1-42-driven tau phosphorylation | 113±7 % of control
